Experimental data taken from patent US5614510A, “Pharmaceutical composition with improved bioavailability of inositol phosphate” (priority 1992, dated 1997).
Structures can show the parent of a compound that is named as a salt.

Tests used:
[1] = bioavailability of IP3 in pigs: blood concentration of IP3 and AUC after intravenous, intraduodenal or oral administration; type: in vivo
Procedure: The blood samples were assayed for the content of IP3 and these measurements were used for the calculation of the reference data as 100% of the substance is introduced into the blood stream after an intravenous injection.
Another five pigs were given the N(3-dodecanoyloxy)propyltrimethyl ammonium salt of IP3 as an intraduodenal dosing. The animals were treated with Atropin® and anaesthetized with Hypnodil®/Sedaperone® whereafter a laparotomy was carried out. Blood samples were collected at the time intervals mentioned above and the concentration of IP3 was determined in each sample. By calculating the area under the curve (AUC) from a graph where the concentration versus time is shown and comparing the obtained value with a similar calculation from the data after intravenous injection of the substance the bioavailability for the specific formulation is obtained.
Blood samples were collected at the same time intervals as above and the concentration of IP3 was determined. Following a similar procedure the AUC was determined.
(§1) Blood samples were collected and the concentration of IP3 were determined.
as §1

With “N-(hexyloxycarbonyl)methyl trimethyl ammonium inositol trisphosphate” the “Normalized AUC” value ([1]; pig, in vivo) was 75%, the “bioavailability of the oral formulation” value ([1]; pig, in vivo) was 75% and the “conc. IP3” value ([1]; pig, in vivo, 0 min) was 0 nM. The concentration ([1]; pig, in vivo, 0.25 h) was 18200 nM, the concentration ([1]; pig, in vivo, 0.5 h) was 29600 nM and the concentration ([1]; pig, in vivo, 1 h) was 20100 nM. For the same molecule, the concentration ([1]; pig, in vivo, 2 h) was 12200 nM, the concentration ([1]; pig, in vivo, 4 h) was 4300 nM and the concentration ([1]; pig, in vivo, 6 h) was 1500 nM. For the same molecule, the concentration ([1]; pig, in vivo, 24 h) was 100 nM and the “toxic effects on the intestinal barriers” value (intestinal barriers) was “no toxic effects on the intestinal barriers”.
In the case of `O=P(O)(O)O[C@@H]1[C@H](OP(=O)(O)O)[C@H](O)[C@@H](O)[C@H](O)[C@H]1OP(=O)(O)O` [sodium salt, pentasodium salt of D-myo-inositol-1.2.6-triphosphate], the “Normalized AUC” value ([1]; pig, in vivo) is reported as 3%, the “Normalized AUC” value ([1]; pig, in vivo, iv) is reported as 100% and the concentration at 0.25 h ([1]; pig, in vivo, iv) is reported as 71000 nM. It also gave a concentration at 0.5 h ([1]; pig, in vivo, iv) of 47500 nM, a concentration at 1 h ([1]; pig, in vivo, iv) of 24900 nM and a concentration at 2 h ([1]; pig, in vivo, iv) of 9300 nM. The concentration at 4 h ([1]; pig, in vivo, iv) was 3200 nM, the concentration at 8 h ([1]; pig, in vivo, iv) was 400 nM and the concentration at 24 h ([1]; pig, in vivo, iv) was 200 nM. The “conc. IP3” value ([1]; pig, in vivo, iv, 0 min) was 0 nM, the concentration ([1]; pig, in vivo, iv, 2 h) was 9300 nM and the concentration at 0.25 h ([1]; pig, in vivo, po) was 200 nM. The concentration at 0.5 h ([1]; pig, in vivo, po) was 500 nM, the concentration at 1 h ([1]; pig, in vivo, po) was 500 nM and the concentration at 2 h ([1]; pig, in vivo, po) was 200 nM. The concentration at 4 h ([1]; pig, in vivo, po) was 100 nM, the concentration at 6 h ([1]; pig, in vivo, po) was 100 nM and the “conc. IP3” value ([1]; pig, in vivo, po, 0 min) was 0 nM. The concentration ([1]; pig, in vivo, po, 1 h) was 500 nM, the “conc. IP3” value ([1]; pig, in vivo, po, 480 min) was 0 nM and the “conc. IP3” value ([1]; pig, in vivo, po, 1440 min) was 0 nM.
With “N(3-dodecanoyloxy)propyltrimethylammonium inositol trisphosphate” the “conc. IP3” value ([1]; pig blood, oral formulation given as intraduodenal dosing, 0 hrs) was 0 nM, the “Normalized AUC” value ([1]; pig, in vivo) was 46% and the “bioavailability of the oral formulation” value ([1]; pig, in vivo) was 46%. It also gave a concentration ([1]; pig, in vivo, 0.25 h) of 6300 nM, a concentration ([1]; pig, in vivo, 0.5 h) of 9400 nM and a concentration ([1]; pig, in vivo, 1 h) of 10800 nM. For the same molecule, the concentration ([1]; pig, in vivo, 2 h) was 7600 nM, the concentration ([1]; pig, in vivo, 4 h) was 2200 nM and the concentration ([1]; pig, in vivo, 6 h) was 1000 nM. The concentration ([1]; pig, in vivo, 8 h) was 800 nM and the concentration ([1]; pig, in vivo, 24 h) was 100 nM.
